Patent publication US8420308B2, “Methods and kits for diagnosis of schizophrenia” (Technion R&D Foundation Ltd., priority 2000, dated 2013)
Where two headings read alike, the source gives them in different places.

Legend:
[1] = target: T1, complex I (Homo sapiens, UniProt P19404+P28331+P49821); test: Complex I driven respiration in SH-SY5Y cells; type: cell-based; parameters: endogenous in cells; host or cells: SH-SY5Y; settings: for % Inhibition - complex I: 5 × 1O^−5 M; for % Inhibition - complex I / inhibition at 100 µM: means ± SD of 4-6 detections; for inhibition at 100 µM: 10^−4 M
T1 sequence (P49821 21-464): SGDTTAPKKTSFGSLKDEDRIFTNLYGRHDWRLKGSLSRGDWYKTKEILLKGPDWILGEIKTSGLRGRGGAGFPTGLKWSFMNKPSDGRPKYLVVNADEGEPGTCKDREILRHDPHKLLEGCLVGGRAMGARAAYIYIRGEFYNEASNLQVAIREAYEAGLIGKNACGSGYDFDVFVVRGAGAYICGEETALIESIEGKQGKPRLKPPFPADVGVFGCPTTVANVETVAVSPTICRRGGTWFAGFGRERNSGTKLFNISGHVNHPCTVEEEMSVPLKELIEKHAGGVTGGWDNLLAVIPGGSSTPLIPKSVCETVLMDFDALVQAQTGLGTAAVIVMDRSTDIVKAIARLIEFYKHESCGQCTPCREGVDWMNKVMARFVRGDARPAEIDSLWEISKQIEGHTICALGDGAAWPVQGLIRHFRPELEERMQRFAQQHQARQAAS
T1 sequence (P19404 33-249): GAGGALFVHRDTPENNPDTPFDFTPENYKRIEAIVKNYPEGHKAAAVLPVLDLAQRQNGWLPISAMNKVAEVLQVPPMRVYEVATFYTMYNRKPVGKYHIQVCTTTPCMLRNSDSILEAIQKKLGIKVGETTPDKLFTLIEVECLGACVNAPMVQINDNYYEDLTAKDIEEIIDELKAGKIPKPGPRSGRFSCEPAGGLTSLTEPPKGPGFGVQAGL
T1 sequence (P28331 24-727): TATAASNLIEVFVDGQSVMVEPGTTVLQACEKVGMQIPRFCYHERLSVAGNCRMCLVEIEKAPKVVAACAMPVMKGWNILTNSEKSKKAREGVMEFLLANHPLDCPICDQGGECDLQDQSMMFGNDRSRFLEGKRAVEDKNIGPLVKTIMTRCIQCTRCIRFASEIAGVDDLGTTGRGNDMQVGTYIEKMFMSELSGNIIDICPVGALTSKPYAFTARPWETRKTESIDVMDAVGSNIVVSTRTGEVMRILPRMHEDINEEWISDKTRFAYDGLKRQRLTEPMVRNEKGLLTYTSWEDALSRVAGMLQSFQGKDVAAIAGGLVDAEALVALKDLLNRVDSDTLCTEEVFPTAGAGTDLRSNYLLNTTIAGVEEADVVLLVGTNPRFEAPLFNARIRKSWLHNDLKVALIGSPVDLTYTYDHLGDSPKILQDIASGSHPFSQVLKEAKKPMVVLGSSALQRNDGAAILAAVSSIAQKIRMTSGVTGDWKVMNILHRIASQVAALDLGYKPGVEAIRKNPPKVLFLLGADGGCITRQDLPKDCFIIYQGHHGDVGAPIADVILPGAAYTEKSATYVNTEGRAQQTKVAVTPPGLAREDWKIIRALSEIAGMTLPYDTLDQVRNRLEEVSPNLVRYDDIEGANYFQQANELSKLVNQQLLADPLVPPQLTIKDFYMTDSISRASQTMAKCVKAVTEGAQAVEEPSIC
Excerpt: (§1) The effect of antipsychotic drugs on respiration in SH-SY5Y cells was studied.

[2] = target: T2, complex II (Homo sapiens, UniProt O14521+P21912+P31040+Q99643); test: Complex II driven respiration in SH-SY5Y cells; type: cell-based; parameters: endogenous in cells; host or cells: SH-SY5Y; settings: for inhibition at 50 µM: 5 × 10^−5 M; for inhibition at 50 µM / inhibition at 100 µM: means ± SD of 4-6 detections; for inhibition at 100 µM: 10^−4 M
T2 sequence (P31040 43-664): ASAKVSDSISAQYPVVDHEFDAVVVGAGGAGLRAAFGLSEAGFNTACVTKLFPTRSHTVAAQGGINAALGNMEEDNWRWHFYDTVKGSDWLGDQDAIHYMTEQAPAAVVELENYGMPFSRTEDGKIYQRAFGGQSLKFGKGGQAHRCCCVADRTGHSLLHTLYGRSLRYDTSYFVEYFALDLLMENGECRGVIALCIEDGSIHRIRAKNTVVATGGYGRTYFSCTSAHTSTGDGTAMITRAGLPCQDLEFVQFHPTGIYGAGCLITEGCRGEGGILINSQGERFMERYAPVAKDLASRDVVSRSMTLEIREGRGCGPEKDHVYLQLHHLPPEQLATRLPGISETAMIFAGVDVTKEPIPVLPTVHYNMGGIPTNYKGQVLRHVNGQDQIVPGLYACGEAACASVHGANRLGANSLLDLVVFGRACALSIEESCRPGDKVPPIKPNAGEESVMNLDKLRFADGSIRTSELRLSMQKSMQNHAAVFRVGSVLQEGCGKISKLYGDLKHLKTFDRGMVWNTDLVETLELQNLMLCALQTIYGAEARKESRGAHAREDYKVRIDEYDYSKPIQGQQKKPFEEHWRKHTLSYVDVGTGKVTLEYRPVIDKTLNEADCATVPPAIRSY
T2 sequence (P21912 29-280): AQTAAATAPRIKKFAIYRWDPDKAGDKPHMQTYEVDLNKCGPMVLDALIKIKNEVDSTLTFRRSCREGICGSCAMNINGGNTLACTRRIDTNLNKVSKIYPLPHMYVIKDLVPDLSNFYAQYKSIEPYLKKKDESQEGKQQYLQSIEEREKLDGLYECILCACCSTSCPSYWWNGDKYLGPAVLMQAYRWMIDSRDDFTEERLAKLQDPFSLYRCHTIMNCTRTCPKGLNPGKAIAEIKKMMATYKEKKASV
T2 sequence (Q99643 30-169): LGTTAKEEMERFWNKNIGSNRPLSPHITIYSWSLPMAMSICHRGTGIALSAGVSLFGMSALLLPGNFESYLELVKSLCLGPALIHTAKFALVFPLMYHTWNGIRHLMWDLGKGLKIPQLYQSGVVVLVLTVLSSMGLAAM
T2 sequence (O14521 57-159): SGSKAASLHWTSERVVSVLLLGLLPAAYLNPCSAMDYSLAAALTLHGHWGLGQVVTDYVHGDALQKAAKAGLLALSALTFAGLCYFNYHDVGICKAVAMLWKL
Excerpt: as §1

[3] = target: complex III (Homo sapiens, UniProt P00156+P08574+P47985); settings: glycerol-3-phosphate in the presence of rotenone, ATP and malonate
Description: (§2) Respiration rate was determined polarographically using a thermostatically controlled (37° C.) Clark oxygen electrode after 10 minutes of incubation. Respiration rates for each enzyme of the respiratory chain were assessed after the permeabilization of cellular membrane, with 0.001% digitonin followed by the addition of the following substrates and inhibitors: […] plus malate for complex I induced respiration; succinate, in the presence of rotenone and ATP for complex II induced respiration, and glycerol-3-phosphate, in the presence of rotenone. […] Results are means±SD of 3 experiments.

[4] = target: T2, complex II; settings: succinate in the presence of rotenone and ATP
Description: as §2

[5] = target: T1, complex I; settings: permeabilized cells, 37° C., 10 minutes of incubation; means±SD of 3 experiments
Description: as §2

[6] = tested on: EBV transformed lymphocytes
Description: Lymphocytes were isolated on Ficol and were centrifugated at 270 g for 10 minutes, the cell pellet was infected with 1 ml EBV at 37° C. for 1 h. The sample was then centrifuged at 270 g for 10 minutes to remove the EBV. The infected lymphocytes were-suspended in 5 ml of RPMI 1640 with 20% (v/v) FBS and 1% phytohemagglutinin (PHA) and incubated in a culture flask with culture medium replaced twice a week. Immortalized lymphocytes were then cryopreserved until use in liquid nitrogen.
Respiration was measured polarographically using a thermostatically controlled (37° C.) Clark oxygen electrode after 10 minutes of incubation. The respiration rates were assessed after the permeabilization of cellular membrane with 0.001% digitonin and the addition of glutamate+malate

[7] = target: T3, NADH CoQ reductase (complex I) (Homo sapiens, UniProt P19404+P28331+P49821); test: NADH-CoQ reductase activity in platelet mitochondria; type: biochemical; settings: 10 μM rotenone; read-out: Residual activity of NADH CoQ reductase in the presence of rotenone
T3 construct: an enriched mitochondrial fraction was isolated on percoll as described previously; from tissue; host or cells: mitochondria-enriched fraction of blood platelets, disrupted by freeze-thaw or digitonin
T3 sequence (P28331 24-727): as the sequence (P28331 24-727) above
T3 sequence (P49821 21-464): as the sequence (P49821 21-464) above
T3 sequence (P19404 33-249): as the sequence (P19404 33-249) above
Description: Blood (40-80 ml) was collected from the cubital vein without tourniquet between 8:00 and 10:00 a.m., mixed 9:1 with 3.8% (w/v) tri-sodium citrate, and platelet-rich plasma (PRP) separated at room temperature by centrifugation at 200×g for 20 min. Platelets were isolated and washed with Tyrode's buffer pH 7.4 containing 1 mM EDTA as described previously (Krige et al., 1992). The platelet pellet was gently resuspended in ice cold 10 mM Tris buffer pH 7.4 containing 250 mM sucrose and 1 mM EDTA and disrupted by a Dounce A homogenizer (20-30 strokes). The breakdown of the platelets was verified by light microscopy. The homogenate was centrifuged at 1000×g at 4° C. for 20 min to remove unbroken cells. The supernatant, containing the cytoplasmic extract was centrifuged at 12,000×g at 4° C. For 15 min and an enriched mitochondrial fraction was isolated on percoll as described previously (Ben-Shachar et al., 1995; Gavin et al., 1990; McComark and Denton, 1989). […] The final preparation was immediately stored at −70° C. until use.
Mitochondrial respiratory chain enzymes activity was assayed blindly and in triplicate after two cycles of freezing and thawing in a final volume of 1 ml at 25° C. by standard techniques. […]
Results from both assays for each sample are expressed as the difference between reductases activities in the absence and the presence of the relevant inhibitors.

[8] = target: T4, mitochondrial complex I (NADH ferricyanide reductase) (Homo sapiens, UniProt P19404+P28331+P49821); test: Dopamine inhibition of NADH-ferricyanide reductase (complex I) activity in platelet mitochondria; type: biochemical; settings: platelet mitochondrial preparation
T4 construct: an enriched mitochondrial fraction was isolated on percoll as described previously; from tissue; host or cells: mitochondria-enriched fraction of blood platelets, disrupted by freeze-thaw or digitonin
T4 sequence (P49821 21-464): as the sequence (P49821 21-464) above
T4 sequence (P19404 33-249): as the sequence (P19404 33-249) above
T4 sequence (P28331 24-727): as the sequence (P28331 24-727) above

Structure (SMILES) | inhibition at 50 µM [2] [%] | inhibition at 100 µM [2] [%] | % Inhibition - complex I [1] [%] | inhibition at 100 µM [1] [%] | other results
CN(C)CCCN1c2ccccc2CCc2ccc(Cl)cc21 [Anafranil] | 11 ± 1.2 | 22.1 ± 18 | 13.0 ± 11.0 | 32.1 ± 8.8 | –
NCCc1ccc(O)c(O)c1 [Dopamine] | – | – | – | – | Inhibition of respiration through complex III [3]: not through complex II and III; Inhibition of respiration through complex II [4]: not through complex II; Inhibition of respiration through complex I [5]: 33.3±0.07%; Inhibition by DA in schizophrenic patients relative to control subjects ([6]; EBV transformed lymphocytes): higher by two fold; Inhibition of respiration by DA ([6]; lymphoblasts of control subjects (n=7)): 11.4±7.2%; Inhibition of respiration by DA ([6]; lymphoblasts of schizophrenic patients (n=7)): 26.8±8.6%
C=C(C)[C@H]1Cc2c(ccc3c2O[C@@H]2COc4cc(OC)c(OC)cc4[C@@H]2C3=O)O1 [rotenone] | – | – | – | – | remaining activity at 10 µM [7]: 5 to 15%; Effect on NADH ferricyanide reductase activity [8]: no effect

Further lines, with some results ahead:

inhibition at 50 µM [2] [%] | inhibition at 100 µM [2] [%] | Structure (SMILES) | % Inhibition - complex I [1] [%] | inhibition at 100 µM [1] [%] | other results
6.6 ± 3.5 | 14.9 ± 2.1 | CN(C)CCCN1c2ccccc2Sc2ccc(Cl)cc21 [Chlorpromazine] | 20.9 ± 18.1 | 43.8 ± 17.3 | Effect on complex I driven mitochondrial respiration (in words) [1]: specifically inhibit complex I driven mitochondrial respiration; Effect on respiration through complex II (in words) [2]: no effect
10.9 ± 1.6 | 2.6 ± 2.4 | CN1CCN(C2=Nc3cc(Cl)ccc3Nc3ccccc32)CC1 [Clozapine] | 31.2 ± 5.6 | 39.9 ± 20.8 | –
15 ± 9.2 | 25.3 ± 0.2 | CNCCC(Oc1ccc(C(F)(F)F)cc1)c1ccccc1 (centres unmarked) [Fluoxetine] | 15.7 ± 25.5 | 29.2 ± 22.7 | –
0.7 ± 0.7 | 2.9 ± 1.8 | O=C(CCCN1CCC(O)(c2ccc(Cl)cc2)CC1)c1ccc(F)cc1 [Haloperidol] | 27.2 ± 4.7 | 47.6 ± 10 | Effect on complex I driven mitochondrial respiration (in words) [1]: specifically inhibit complex I driven mitochondrial respiration; Effect on respiration through complex II (in words) [2]: no effect
